In patent publication US20100324019A1 (priority 2007, published 2010):

Legend:
Format in all cases: in vivo, human
[1] = tested on: healthy subjects by MTHFR C677T genotype; assay: Blood pressure response to riboflavin intervention in healthy individuals; details: for Diastolic blood pressure / Systolic blood pressure: healthy subjects, median
Procedure: (§1) Blood pressure measurements were recorded as the mean of two separate measurements taken 15 minutes apart using an Omcron 705CP electronic blood pressure monitor (Medisave, Dorset, UK). Weight (kg) and height in (m), were used to calculate BMI (weight (kg)/height^2 (m)). Waist circumference (cm) was also measured. All measurements were made using Seca approved equipment (Brosch Direct, Ltd, Peterborough, UK).
Measurements were taken and recorded according to the procedures described in Example 1 above. The results obtained, namely the baseline characteristics of healthy subjects pre-screened and age-matched for MTHFR genotype (n=124), are shown in Table 4.
A placebo controlled intervention study in 81 healthy individuals was carried out.

[2] = tested on: premature CVD patients by MTHFR C677T genotype; assay: Plasma homocysteine (immunoassay) in 16-week riboflavin intervention trial, premature CVD patients; details: mean (SD)
Source text: (§2) Ethical approval was granted by both the Research Ethical Committee of the University of Ulster and Altnagelvin Hospital Trust, Londonderry, Northern Ireland. Premature CVD patients, males aged 55 years and females aged 65 years and under at time of event were recruited from the cardiac department of Altnagelvin hospital. Patients were indicated by a previous myocardial infarction (MI) or angina diagnosed by ECG changes. Potential participants (n=404) were screened for MTHFR genotype on the basis of a buccal swab sample. Those with the TT genotype were identified (n=54); these were age and sex matched with a similar number of patients with the CC or CT genotypes, resulting in a total of 197 patients who were invited to participate in the current intervention study (see FIG. 1). Exclusion criteria for all subjects were history of hepatic or renal disease, consumers of B-vitamin supplements, those taking medication known to interfere with folate metabolism, at least 3 months post MI prior to blood sampling. All volunteers provided written informed consent and completed a health and medical/lifestyle questionnaire which included questions regarding family history of CVD and smoking habits.
(§3) The study was a 16-week placebo controlled intervention trial. […] Non-fasting blood samples were collected at screening and post intervention either at Altnagelvin hospital, their workplace or their own homes.
One 30 ml blood sample was collected from each patient, one 9 ml EDTA tube for plasma and washed red cells, one 4 ml EDTA tube for the preparation of red blood cell lysates and the measurement of haemoglobin (HB) and packed cell volume (PCV); one 8 ml serum separation tube for serum extraction, one 5 ml serum separation tube for lipid profile analysis and one 4 ml sodium citrate tube for coagulation screening. The 9 ml EDTA was immediately wrapped in tin foil and placed on ice. Samples were centrifuged within 2 hours of sampling at 3000 rpm for 15 minutes. Plasma was removed and stored at −80° C. for plasma homocysteine and PLP analysis. The buffy layer was removed for confirmation of MTHFR genotyping and stored at −20° C. The remaining red blood cells were thrice washed with phosphate buffered saline (PBS) with the supernatant and remaining buffy layer being discarded after each wash. […] Serum was removed and stored at −80° C. for serum folate.
Plasma homocysteine was measured by immunoassay using the Abbott Imx analyser (Leino A., 1999, “Fully automated measurement of total homocysteine in plasma and serum on the Abbott IMx analyzer.” Clin. Chem, 45, 569-71). Serum folate and red blood cell folate concentrations were determined by microbiological assay using the cryopreserved, microtitre plate method (Molloy et al, 1997, “Microbiological assay for serum, plasma, and red cell folate using cryopreserved, microtiter plate method.” Methods Enzymol, 281, 43-53). Plasma PLP was determined by reverse-phase high pressure liquid chromatography (HPLC) with fluorescence detection (Bates et al, 1999, “Plasma pyridoxal phosphate and pyridoxic acid and their relationship to plasma homocysteine in a representative sample of British men and women aged 65 years and over.” British Journal of Nutrition, 1, 191-201). Identification of the MTHFR C677T genotype was carried out using the polymerase chain reaction (PCR) amplification followed by HinF1 (Frosst et al, 1995, “A candidate genetic risk factor for vascular disease: A common mutation in methylenetetrahydrofolate reductase.” Nat Genetc, 10, 111-113). […] Coagulation screening was measured by ACI Instrumentation Laboratories. HB and PCV were measured using Sysmex XE-2100 (Sysmex, UK Ltd. Milton Keynes UK) analyser and lipid profiles were measured using Abbott Architect CI 8200 analyser (Abbott Laboratories, USA). For all assays, samples were analysed blind, in duplicate and within 1 year of collection. […]

[3] = tested on: premature CVD patients by MTHFR C677T genotype; assay: Blood pressure in 16-week placebo controlled riboflavin intervention trial, premature CVD patients; details: for Diastolic blood pressure / Systolic blood pressure: mean (SD)
Source text: as §2, §3, §1
All statistical analysis was performed using the SPSS statistical package for the social sciences (version 11.0, SPSS UK Ltd., Chersey, United Kingdom). For normalisation purposes variables were log-transformed as appropriate prior to statistical analysis. One way ANOVA with Tukey's post hoc test was used to examine the differences in the baseline characteristics among the genotype groups. Categorical data were assessed using chi squared analysis. Correlation analysis was performed using bivariate Pearson correlation coefficients. […] P values<0.05 were considered significant.

[4] = CC genotype, After riboflavin 1.6 mg/d, 16 weeks
[5] = CC genotype, Before intervention
[6] = CT genotype, After riboflavin 1.6 mg/d, 16 weeks
[7] = CT genotype, Before intervention
[8] = TT genotype, After riboflavin 1.6 mg/d, 16 weeks
[9] = TT genotype, Before intervention
[10] = CC genotype, premature CVD patients, Post 16 weeks riboflavin 1.6 mg/day, n = 32
[11] = CC genotype, premature CVD patients, Pre intervention, n = 32
[12] = CT genotype, premature CVD patients, Post 16 weeks riboflavin 1.6 mg/day, n = 35
[13] = CT genotype, premature CVD patients, Pre intervention, n = 35
[14] = TT genotype, premature CVD patients, 16 weeks low-dose riboflavin
[15] = TT genotype, premature CVD patients, Post 16 weeks riboflavin 1.6 mg/day, n = 25
[16] = TT genotype, premature CVD patients, Pre intervention, n = 25
[17] = estimated from the magnitude of blood pressure lowering in TT patients

Cc1cc2nc3c(=O)[nH]c(=O)nc-3n(C[C@H](O)[C@H](O)[C@H](O)CO)c2cc1C [Riboflavin, riboflavin]
effect on systolic or diastolic blood pressure ([1]; healthy cohort with the TT genotype, 1.6 mg/day for 16 weeks): no significant systolic or diastolic blood pressure lowering effect
effect on diastolic blood pressure ([1]; healthy individuals, CC group, 1.6 mg/day for 16 weeks): increase
Diastolic blood pressure [1, 4]: 86.5 mmHg
Systolic blood pressure [1, 4]: 143.5 mmHg
Diastolic blood pressure [1, 5]: 80.5 mmHg
Systolic blood pressure [1, 5]: 137.0 mmHg
Diastolic blood pressure [1, 6]: 89.0 mmHg
Systolic blood pressure [1, 6]: 150.0 mmHg
Diastolic blood pressure [1, 7]: 87.0 mmHg
Systolic blood pressure [1, 7]: 150.0 mmHg
Diastolic blood pressure [1, 8]: 88.5 mmHg
Systolic blood pressure [1, 8]: 145.0 mmHg
Diastolic blood pressure [1, 9]: 88.5 mmHg
Systolic blood pressure [1, 9]: 139.5 mmHg
Homocysteine ([2]; CC genotype, Post 16 weeks riboflavin 1.6 mg/day, n = 32): 9.8 (3.6) μmol/l
Homocysteine ([2]; CC genotype, Pre intervention, n = 32): 10.1 (3.9) μmol/l
Homocysteine ([2]; CT genotype, Post 16 weeks riboflavin 1.6 mg/day, n = 35): 10.6 (6.3) μmol/l
Homocysteine ([2]; CT genotype, Pre intervention, n = 35): 10.5 (3.8) μmol/l
Homocysteine ([2]; TT genotype, Post 16 weeks riboflavin 1.6 mg/day, n = 25): 10.0 (3.1) μmol/l
Homocysteine ([2]; TT genotype, Pre intervention, n = 25): 11.3 (4.4) μmol/l
Diastolic blood pressure [3, 10]: 80.4 (12.0) mmHg
Systolic blood pressure [3, 10]: 133.4 (15.3) mmHg
Diastolic blood pressure [3, 11]: 80.1 (8.9) mmHg
Systolic blood pressure [3, 11]: 134.3 (14.9) mmHg
effect on blood pressure (either systolic or diastolic) ([3]; CC genotype, premature CVD patients, following riboflavin administration): no significant reduction
Diastolic blood pressure [3, 12]: 84.2 (9.2) mmHg
Systolic blood pressure [3, 12]: 135.4 (15.4) mmHg
Diastolic blood pressure [3, 13]: 86.0 (10.8) mmHg
Systolic blood pressure [3, 13]: 136.2 (16.9) mmHg
decrease in diastolic blood pressure [3, 14]: 8 units
decrease in systolic blood pressure [3, 14]: 11 units
effect on systolic and diastolic blood pressure [3, 14]: significant lowering
Diastolic blood pressure [3, 15]: 80.2 (14.2) mmHg
Systolic blood pressure [3, 15]: 131.6 (20.9) mmHg
Diastolic blood pressure [3, 16]: 88.1 (14.2) mmHg
Systolic blood pressure [3, 16]: 142.8 (22.1) mmHg
lowering of risk of heart disease estimated from meta-analyses [3, 17]: 29%
lowering of risk of stroke estimated from meta-analyses [3, 17]: 46%
